Assay results published in ChEMBL document CHEMBL1130184, “Effect of a chemical modification on the hydrated adenosine intermediate produced by adenosine deaminase and a model reaction for a potential mechanism of action of 5-aminoimidazole ribonucleotide carboxylase” (J Med Chem, 1997).

What was measured:
[1] = molecular target: T1, Adenosine deaminase (Bos taurus) (UniProt P56658); experiment: Inhibitory activity of compound at 25 uM against adenosine deaminase
T1 sequence (whole entry): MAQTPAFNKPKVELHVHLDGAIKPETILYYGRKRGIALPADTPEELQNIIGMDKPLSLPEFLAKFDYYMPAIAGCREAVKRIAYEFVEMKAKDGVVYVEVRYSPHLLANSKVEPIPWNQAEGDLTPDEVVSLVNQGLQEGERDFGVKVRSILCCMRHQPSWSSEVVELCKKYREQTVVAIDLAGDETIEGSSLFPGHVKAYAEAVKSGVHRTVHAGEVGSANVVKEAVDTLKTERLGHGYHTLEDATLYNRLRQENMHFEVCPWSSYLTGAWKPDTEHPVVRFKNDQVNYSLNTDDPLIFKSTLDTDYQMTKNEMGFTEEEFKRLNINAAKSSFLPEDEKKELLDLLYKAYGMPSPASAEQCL

Adenosine deaminase [2] = molecular target: T2, Adenosine deaminase (Bos taurus, UniProt P56658); experiment: Inhibitory activity against adenosine deaminase
T2 sequence (P56658 whole entry): T1 sequence (whole entry)

Adenosine deaminase [3] = molecular target: T2, Adenosine deaminase; experiment: Apparent binding constant against adenosine deaminase

In the case of Nc1ncnc2c1ncn2[C@@H]1O[C@H](CO)[C@@H](O)[C@H]1O, the inhibition [1] is reported as 15%.
Compound Nc1ccnc2c1ncn2[C@@H]1O[C@H](CO)[C@@H](O)[C@H]1O has a Ki (Adenosine deaminase [2]) of 0.18 µM.
O=CNc1cn([C@@H]2O[C@H](CO)[C@@H](O)[C@H]2O)cn1 was tested, and the Ki (Adenosine deaminase [3]) was 40 µM.
